The source of these data is patent US4349546A, “D-Allose derivative and preparation method therefor” (Wakamoto Pharmaceutical Co., Ltd., priority 1980, dated 1982).

For data set [1], the system named is early stage encephalophyma, melanoma, lymphoma. The conditions noted are these: background statement; cited from earlier work.
In data set [2] the test system is tumor. The following applies: background statement; cited from earlier work.
Data set [3] deals with Peripheral leukocyte count. Put plainly: Effects on peripheral leukocyte count (Test Example 6). The class given is in vivo, DDY mice. The text has this:
Comparison of effects of CNUA and Me-CCNU* on peripheral leukocyte count:
Six-week old DDY mice each weighing 22±1 g; one group comprising 5 male mice.
CNUA and Me-CCNU were given intraperitoneally on the first day. The, blood was drawn from a tail vein at time intervals to determine the leukocyte count. The samples were used in the form of a solution in an isotonic sodium chloride solution.

Structures are written as SMILES.

For the molecule `O=NN(CCCl)C(=O)NCCCl` [BCNU, 1,3-bis-(2-chloroethyl)-1-nitrosourea], in data set [1], the effectiveness against tumors entry is given as “effective against early stage encephalophyma, melanoma, lymphoma”.
For the molecule `O=NN(CCCl)C(=O)NC1CCCCC1` [CCNU, 1-(2-chloroethyl)-3-cyclohexyl-1-nitrosourea], the effectiveness against tumors result in data set [1] is given as “effective against early stage encephalophyma, melanoma, lymphoma”.
With `CN(N=O)C(=O)N[C@H]1C(O)O[C@H](CO)[C@@H](O)[C@@H]1O` (stereo partly drawn) [streptozotocin], the antitumor effects entry in data set [2] is listed as “exhibit antitumor effects”.
For `O=NN(CCCl)C(=O)N[C@H]1C(O)O[C@H](CO)[C@@H](O)[C@@H]1O` (stereo partly drawn) [chlorozotocin], the antitumor effects entry in data set [2] was “exhibit antitumor effects”.
As to `C[C@H]1CC[C@H](NC(=O)N(CCCl)N=O)CC1` [Me-CCNU, 1-(2-chloroethyl)-3-(trans-4-methylcyclohexyl)-1-nitrosourea, reference compound], the effectiveness against tumors result in data set [1] is listed as “effective against early stage encephalophyma, melanoma, lymphoma”. Moreover, the “Peripheral leukocyte count after the administration” value in data set [3] (20 mg/kg ip, 2 day) is on record as 55.0 % based on the control; in data set [3] (20 mg/kg ip, 4 day), 53.3 % based on the control; in data set [3] (20 mg/kg ip, 7 day), 50.2 % based on the control; in data set [3] (20 mg/kg ip, 10 day), 59.5 % based on the control; in data set [3] (20 mg/kg ip, 14 day) it was 145 % based on the control; in data set [3] (40 mg/kg ip, 2 day) it was 56.0 % based on the control. Further, the “Peripheral leukocyte count after the administration” value came out at 36.5 % based on the control in data set [3] (40 mg/kg ip, 4 day); 34.0 % based on the control in data set [3] (40 mg/kg ip, 7 day); 40.7 % based on the control in data set [3] (40 mg/kg ip, 10 day); 78.1 % based on the control in data set [3] (40 mg/kg ip, 14 day).
